Results as given in ChEMBL document CHEMBL3045799, “Effect of Candidatus Liberibacter asiaticus infection on susceptibility of Asian citrus psyllid, Diaphorina citri, to selected insecticides” (2011).

Experiments:
Type in all cases: functional
Diaphorina citri [1] = test: Selectivity ratio of LC50 for Diaphorina citri to LC50 for Diaphorina citri infected with Candidatus Liberibacter asiaticus
Diaphorina citri [2] = test: Insecticidal activity against Diaphorina citri assessed as mortality after 48 hr
Diaphorina citri [3] = test: Insecticidal activity against Diaphorina citri infected with Candidatus Liberibacter asiaticus assessed as mortality after 48 hr

| SMILES | RatioLC50 (Diaphorina citri [1]) | LC50 (Diaphorina citri [2]) | LC50 (Diaphorina citri [3]) |
| --- | --- | --- | --- |
| CCO[C@@H]1[C@@H](OC)[C@H](C)O[C@@H](O[C@@H]2C[C@H]3CC[C@@H]4[C@@H](C=C5C(=O)[C@H](C)[C@@H](O[C@H]6CC[C@H](N(C)C)[C@@H](C)O6)CCC[C@H](CC)OC(=O)C[C@H]54)[C@@H]3C2)[C@@H]1OC.CCO[C@@H]1[C@@H](OC)[C@H](C)O[C@@H](O[C@H]2C[C@H]3[C@@H]4C=C5C(=O)[C@H](C)[C@@H](O[C@H]6CC[C@H](N(C)C)[C@@H](C)O6)CCC[C@H](CC)OC(=O)C[C@H]5[C@@H]4C=C(C)[C@@H]3C2)[C@@H]1OC | 1.2 | 0.48 mgAi/L | 0.2 mgAi/L |
| CCOP(=S)(OCC)Oc1nc(Cl)c(Cl)cc1Cl [CHLORPYRIFOS] | 2.8 | 0.78 mgAi/L | 0.28 mgAi/L |
| CC1(C)C(C(=O)OC(C#N)c2cccc(Oc3ccccc3)c2)C1(C)C (configuration not stated) [FENPROPATHRIN] | 1.2 | 0.06 mgAi/L | 0.05 mgAi/L |
| O=[N+]([O-])/N=C1\NCCN1Cc1ccc(Cl)nc1 [IMIDACLOPRID] | 3.1 | 0.47 mgAi/L | 0.15 mgAi/L |
